Measurements as given in the supplement of paper PMC10307832.

Columns and labels:
Experiment in all cases: relative viability (nuclei count vs DMSO), 5 days (fraction); higher = more cells survive
PC-3 [JPC-3] = test system: PC-3 [JPC-3]
Summary of the method: (§1)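 Values are medians from duplicate plates. Each reflects relative viability, defined as the nuclei count of treated wells over that of vehicle wells. Lung cancer cell lines in 1536-well plates were pin-tool dosed one day after seeding with one drug alone or with a fixed anchor-drug dose plus five library-drug doses (not always all listed) in √10 steps, then fixed, stained and imaged at 4× after 5 days.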

NCI-H2087 = test system: NCI-H2087
Summary of the method: as §1

HCC-366 = test system: HCC-366
Summary of the method: as §1

NCI-H2228 = test system: NCI-H2228
Summary of the method: as §1

RERF-LC-KJ = test system: RERF-LC-KJ
Summary of the method: as §1

NCI-H1395 = test system: NCI-H1395
Summary of the method: as §1

ABC-1 = test system: ABC-1
Summary of the method: as §1

NCI-H460 = test system: NCI-H460
Summary of the method: as §1

LOU-NH91 = test system: LOU-NH91
Summary of the method: as §1

NCI-H1793 = test system: NCI-H1793
Summary of the method: as §1

UMC-11 = test system: UMC-11
Summary of the method: as §1

NCI-H2405 = test system: NCI-H2405
Summary of the method: as §1

HCC-78 = test system: HCC-78
Summary of the method: as §1

LU99A = test system: LU99A
Summary of the method: as §1

NCI-H3122 = test system: NCI-H3122
Summary of the method: as §1

NCI-H2170 = test system: NCI-H2170
Summary of the method: as §1

NCI-H1651 = test system: NCI-H1651
Summary of the method: as §1

LC-2-ad = test system: LC-2-ad
Summary of the method: as §1

NCI-H1755 = test system: NCI-H1755
Summary of the method: as §1

NCI-H1944 = test system: NCI-H1944
Summary of the method: as §1

ChaGo-K-1 = test system: ChaGo-K-1
Summary of the method: as §1

CAL-12T = test system: CAL-12T
Summary of the method: as §1

`O=c1cc(-c2cccc3c2Sc2ccccc2S3)oc(N2CCOCC2)c1` + N=C(N)NC(=N)NCCc1ccccc1 [Phenformin] (partner 250 µM) gave a relative viability (PC-3 [JPC-3]; first compound 0.08 µM) of 0.473, a relative viability (PC-3 [JPC-3]; first compound 0.253 µM) of 0.458 and a relative viability (PC-3 [JPC-3]; first compound 0.8 µM) of 0.514. For the same compound, the relative viability (PC-3 [JPC-3]; first compound 2.53 µM) was 0.448, the relative viability (PC-3 [JPC-3]; first compound 8 µM) was 0.495 and the relative viability (NCI-H2087; first compound 0.08 µM) was 0.47. It also gave a relative viability (NCI-H2087; first compound 0.253 µM) of 0.623, a relative viability (NCI-H2087; first compound 0.8 µM) of 0.527 and a relative viability (NCI-H2087; first compound 2.53 µM) of 0.398. It also gave a relative viability (NCI-H2087; first compound 8 µM) of 0.462, a relative viability (HCC-366; first compound 0.08 µM) of 0.588 and a relative viability (HCC-366; first compound 0.253 µM) of 0.727. The relative viability (HCC-366; first compound 0.8 µM) was 0.71, the relative viability (HCC-366; first compound 2.53 µM) was 0.549 and the relative viability (HCC-366; first compound 8 µM) was 0.632. For the same compound, the relative viability (NCI-H2228; first compound 0.08 µM) was 0.346, the relative viability (NCI-H2228; first compound 0.253 µM) was 0.25 and the relative viability (NCI-H2228; first compound 0.8 µM) was 0.426. It also gave a relative viability (NCI-H2228; first compound 2.53 µM) of 0.267, a relative viability (NCI-H2228; first compound 8 µM) of 0.277 and a relative viability (RERF-LC-KJ; first compound 0.08 µM) of 0.4. It also gave a relative viability (RERF-LC-KJ; first compound 0.253 µM) of 0.426, a relative viability (RERF-LC-KJ; first compound 0.8 µM) of 0.465 and a relative viability (RERF-LC-KJ; first compound 2.53 µM) of 0.444. It also gave a relative viability (RERF-LC-KJ; first compound 8 µM) of 0.406, a relative viability (NCI-H1395; first compound 0.08 µM) of 0.462 and a relative viability (NCI-H1395; first compound 0.253 µM) of 0.393. It also gave a relative viability (NCI-H1395; first compound 0.8 µM) of 0.472, a relative viability (NCI-H1395; first compound 2.53 µM) of 0.389 and a relative viability (NCI-H1395; first compound 8 µM) of 0.433. The relative viability (ABC-1; first compound 0.08 µM) was 0.228, the relative viability (ABC-1; first compound 0.253 µM) was 0.23 and the relative viability (ABC-1; first compound 0.8 µM) was 0.23. The relative viability (ABC-1; first compound 2.53 µM) was 0.234, the relative viability (ABC-1; first compound 8 µM) was 0.277 and the relative viability (NCI-H460; first compound 0.08 µM) was 0.535. It also gave a relative viability (NCI-H460; first compound 0.253 µM) of 0.549, a relative viability (NCI-H460; first compound 0.8 µM) of 0.571 and a relative viability (NCI-H460; first compound 2.53 µM) of 0.525. For the same compound, the relative viability (NCI-H460; first compound 8 µM) was 0.531, the relative viability (LOU-NH91; first compound 0.08 µM) was 0.611 and the relative viability (LOU-NH91; first compound 0.253 µM) was 0.675. For the same compound, the relative viability (LOU-NH91; first compound 0.8 µM) was 0.658, the relative viability (LOU-NH91; first compound 2.53 µM) was 0.6 and the relative viability (LOU-NH91; first compound 8 µM) was 0.741. The relative viability (NCI-H1793; first compound 0.08 µM) was 0.344, the relative viability (NCI-H1793; first compound 0.253 µM) was 0.398 and the relative viability (NCI-H1793; first compound 0.8 µM) was 0.347. It also gave a relative viability (NCI-H1793; first compound 2.53 µM) of 0.306, a relative viability (NCI-H1793; first compound 8 µM) of 0.279 and a relative viability (UMC-11; first compound 0.08 µM) of 0.322. It also gave a relative viability (UMC-11; first compound 0.253 µM) of 0.34, a relative viability (UMC-11; first compound 0.8 µM) of 0.372 and a relative viability (UMC-11; first compound 2.53 µM) of 0.29. It also gave a relative viability (UMC-11; first compound 8 µM) of 0.324, a relative viability (NCI-H2405; first compound 0.08 µM) of 0.354 and a relative viability (NCI-H2405; first compound 0.253 µM) of 0.372. The relative viability (NCI-H2405; first compound 0.8 µM) was 0.45, the relative viability (NCI-H2405; first compound 2.53 µM) was 0.385 and the relative viability (NCI-H2405; first compound 8 µM) was 0.415. For the same compound, the relative viability (HCC-78; first compound 0.08 µM) was 0.62, the relative viability (HCC-78; first compound 0.253 µM) was 0.769 and the relative viability (HCC-78; first compound 0.8 µM) was 0.638. For the same compound, the relative viability (HCC-78; first compound 2.53 µM) was 0.555, the relative viability (HCC-78; first compound 8 µM) was 0.667 and the relative viability (LU99A; first compound 0.08 µM) was 0.872. The relative viability (LU99A; first compound 0.253 µM) was 1.08, the relative viability (LU99A; first compound 0.8 µM) was 1.03 and the relative viability (LU99A; first compound 2.53 µM) was 0.896. The relative viability (LU99A; first compound 8 µM) was 1, the relative viability (NCI-H3122; first compound 0.08 µM) was 0.38 and the relative viability (NCI-H3122; first compound 0.253 µM) was 0.418. The relative viability (NCI-H3122; first compound 0.8 µM) was 0.376, the relative viability (NCI-H3122; first compound 2.53 µM) was 0.36 and the relative viability (NCI-H3122; first compound 8 µM) was 0.398. The relative viability (NCI-H2170; first compound 0.08 µM) was 0.427, the relative viability (NCI-H2170; first compound 0.253 µM) was 0.444 and the relative viability (NCI-H2170; first compound 0.8 µM) was 0.431. The relative viability (NCI-H2170; first compound 2.53 µM) was 0.319, the relative viability (NCI-H2170; first compound 8 µM) was 0.444 and the relative viability (NCI-H1651; first compound 0.08 µM) was 0.342. The relative viability (NCI-H1651; first compound 0.253 µM) was 0.526, the relative viability (NCI-H1651; first compound 0.8 µM) was 0.423 and the relative viability (NCI-H1651; first compound 2.53 µM) was 0.362. It also gave a relative viability (NCI-H1651; first compound 8 µM) of 0.299, a relative viability (LC-2-ad; first compound 0.08 µM) of 0.557 and a relative viability (LC-2-ad; first compound 0.253 µM) of 0.576. The relative viability (LC-2-ad; first compound 0.8 µM) was 0.645, the relative viability (LC-2-ad; first compound 2.53 µM) was 0.558 and the relative viability (LC-2-ad; first compound 8 µM) was 0.592. It also gave a relative viability (NCI-H1755; first compound 0.08 µM) of 0.625, a relative viability (NCI-H1755; first compound 0.253 µM) of 0.694 and a relative viability (NCI-H1755; first compound 0.8 µM) of 0.597. It also gave a relative viability (NCI-H1755; first compound 2.53 µM) of 0.545, a relative viability (NCI-H1755; first compound 8 µM) of 0.653 and a relative viability (NCI-H1944; first compound 0.08 µM) of 0.192. It also gave a relative viability (NCI-H1944; first compound 0.253 µM) of 0.21, a relative viability (NCI-H1944; first compound 0.8 µM) of 0.186 and a relative viability (NCI-H1944; first compound 2.53 µM) of 0.168. The relative viability (NCI-H1944; first compound 8 µM) was 0.22, the relative viability (ChaGo-K-1; first compound 0.08 µM) was 0.463 and the relative viability (ChaGo-K-1; first compound 0.253 µM) was 0.53. For the same compound, the relative viability (ChaGo-K-1; first compound 0.8 µM) was 0.56, the relative viability (ChaGo-K-1; first compound 2.53 µM) was 0.344 and the relative viability (ChaGo-K-1; first compound 8 µM) was 0.509. The relative viability (CAL-12T; first compound 0.08 µM) was 0.534, the relative viability (CAL-12T; first compound 0.253 µM) was 0.603 and the relative viability (CAL-12T; first compound 0.8 µM) was 0.597. For the same compound, the relative viability (CAL-12T; first compound 2.53 µM) was 0.514 and the relative viability (CAL-12T; first compound 8 µM) was 0.487.
